Data set [1] concerns Sr. marcescens SS 03. The data set is classed as cell-based. The settings on record: Brain Heart Infusion, estolate and RV11-RV15 previously hydrolized, unit assumed.
Data set [2] concerns N. gonorreae SS 27. The class given is cell-based. The settings on record: Brain Heart Infusion, estolate and RV11-RV15 previously hydrolized, unit assumed.
For data set [3], the system named is N. meningitidis SS 04. The data set is classed as cell-based. Conditions: Brain Heart Infusion, estolate and RV11-RV15 previously hydrolized, unit assumed.
In data set [4] the test system is C. albicans SS 04. The class given is cell-based. The settings on record: Brain Heart Infusion, estolate and RV11-RV15 previously hydrolized, unit assumed.
Data set [5] has as its system D. pneumoniae SS 23. As to the kind of experiment: Experimental infection induced by D. pneumoniae SS 23. The settings on record: D. pneumoniae SS 23, mg/kg of erythromycin, survival after 7 days; for ED50 (reliability limits): 10080 min. The data set is classed as in vivo, Swiss white mice. In short, it runs like this:
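Swiss mice of 20 g infected parenterally with lethal amounts of Staph. aureus SS 07 or D. pneumoniae SS 23. Antibiotics were given at infection and again 6 and 24 h later. ED50 was derived from survival at 7 days.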

Data set [6] in a line: Hematic levels in the rat (absorption by oral route). Conditions: for absorption by oral route (in words): from in vivo antibacterial and pharmacodynamic tests.
Data set [7] is described as follows: Hematic levels in the healthy volunteer. The data set is classed as in vivo, healthy volunteers. The settings on record: oral, 500 mg of erythromycin, average. An excerpt: For the dosing, the microbiological method using a B. subtilis strain was adopted.
The conditions of data set [8]: in vivo; for Hematic levels in the rat: po, 100 mg/kg; for absorption by oral route (in words): rat.
The mark [9] stands for this setting: 0.30 hours, 100 mg/kg as erythromycin, average, 100 mg/kg, 18 min.
Setting [10] is: 1 hour, 100 mg/kg as erythromycin, average, 100 mg/kg, 60 min.
[11] abbreviates: 4 hours, 100 mg/kg as erythromycin, average, 100 mg/kg, 240 min.
[12] abbreviates: 5 hours, 100 mg/kg as erythromycin, average, 100 mg/kg, 300 min.
[13] abbreviates: 6 hours, 100 mg/kg as erythromycin, average, 100 mg/kg, 360 min.
Setting [14] is: 2 hours, 100 mg/kg as erythromycin, average, 100 mg/kg, 120 min.
Setting [15] is: 3 hours, 100 mg/kg as erythromycin, average, 100 mg/kg, 180 min.

In brackets after ≈: the same amount, converted by molar mass. Where two headings read alike, the source gives them in different places. Bounds are passed on as bounds.

By MIC is commonly meant the least concentration at which growth counts as inhibited. By ED50 is commonly meant the dose at which the effect has come halfway, by size or by number of responders.

As to `CC[C@H]1OC(=O)[C@H](C)[C@@H](O[C@H]2C[C@@](C)(OC)[C@@H](O)[C@H](C)O2)[C@H](C)[C@@H](O[C@@H]2O[C@H](C)C[C@H](N(C)C)[C@H]2O)[C@](C)(O)C[C@@H](C)C(=O)[C@H](C)[C@@H](O)[C@]1(C)O` [RV01, erythromycin alpha-mercaptosuccinate], the MIC is 200 µg/mL (≈ 273 µM) in data set [1], 0.8 µg/mL (≈ 1.09 µM) in data set [2], 0.8 µg/mL (≈ 1.09 µM) in data set [3] and greater than 200 µg/mL in data set [4]. The 50% effective dose (ED50) in data set [5] (Streptococcus pneumoniae, SS23, in Mus musculus, sc, 168 h, s.c., read-out: ED50 (reliability limits)) turned out to be 52.7 mg/kg. Moreover, the “ED50 (reliability limits)” value in data set [5] (os) was 108.98 (137.60-86.32) mg/kg. Moreover, the “Hematic levels in the rat” value in data set [6] (setting [9]) came to 0.48 µg/mL; in data set [6] (setting [10]), 0.79 µg/mL; in data set [6] (setting [11]), 0.44 µg/mL; in data set [6] (setting [12]), 0.24 µg/mL; in data set [6] (setting [13]) it was 0.03 µg/mL. In data set [6], the “absorption by oral route (in words)” value was “poorly absorbed by oral route and in a rate like that of erythromycin base”. Also, in data set [6] (rat, blood, po, 100 mg/kg, Hematic levels in the rat, 2 hours, 100 mg/kg as erythromycin, average), the concentration at 2 h worked out at 1180 ng/mL. The molecule also displayed a concentration at 3 h in data set [6] (rat, blood, po, 100 mg/kg, Hematic levels in the rat, 3 hours, 100 mg/kg as erythromycin, average) of 770 ng/mL.
As to `CC[C@H]1OC(=O)[C@H](C)[C@@H](O[C@H]2C[C@@](C)(OC)[C@@H](O)[C@H](C)O2)[C@H](C)[C@@H](O[C@@H]2O[C@H](C)C[C@H](N(C)C)[C@H]2O)[C@](C)(O)C[C@@H](C)C(=O)[C@H](C)[C@@H](O)[C@]1(C)O` [RV03, erythromycyn-thiazolidin-carboxylate], the MIC in data set [1] is 100 µg/mL (≈ 136 µM); in data set [2], 0.8 µg/mL (≈ 1.09 µM); in data set [3] it was 1.5 µg/mL (≈ 2.04 µM); in data set [4], 200 µg/mL (≈ 273 µM). In addition, the “ED50 (reliability limits)” value in data set [5] (os) is 119.21 (142.60-99.65) mg/kg; in data set [5] (s.c.), 47.98 (59.13-38.93) mg/kg. The “Hematic levels in the rat” value in data set [6] (setting [9]) came to 0.58 µg/mL; in data set [6] (setting [10]) it was 0.71 µg/mL; in data set [6] (setting [14]) it was 1.30 µg/mL; in data set [6] (setting [15]), 0.77 µg/mL; in data set [6] (setting [11]), 0.59 µg/mL; in data set [6] (setting [12]) it was 0.36 µg/mL. In data set [6] (setting [13]), the “Hematic levels in the rat” value is 0.07 µg/mL. Besides, the “absorption by oral route (in words)” value in data set [6] was “poorly absorbed by oral route and in a rate like that of erythromycin base”.
With `CC[C@H]1OC(=O)[C@H](C)[C@@H](O[C@H]2C[C@@](C)(OC)[C@@H](O)[C@H](C)O2)[C@H](C)[C@@H](O[C@@H]2O[C@H](C)C[C@H](N(C)C)[C@H]2O)[C@](C)(O)C[C@@H](C)C(=O)[C@H](C)[C@@H](O)[C@]1(C)O` [RV04, erythromycin-S-carboxymethylcysteinate], the MIC in data set [1] is greater than 200 µg/mL; in data set [2], 0.8 µg/mL (≈ 1.09 µM); in data set [3] it was 1.5 µg/mL (≈ 2.04 µM); in data set [4] it was 100 µg/mL (≈ 136 µM). Moreover, the results for the “ED50 (reliability limits)” value in data set [5] (os) and in data set [5] (s.c.) were 119.31 (152.88-92.95) mg/kg and 60.17 (70.74-51.18) mg/kg, respectively. The “Hematic levels in the rat” value turned out to be 0.50 µg/mL in data set [6] (setting [9]); 0.71 µg/mL in data set [6] (setting [10]); 1.30 µg/mL in data set [6] (setting [14]); 1.04 µg/mL in data set [6] (setting [15]); 0.68 µg/mL in data set [6] (setting [11]); 0.43 µg/mL in data set [6] (setting [12]). Besides, the “Hematic levels in the rat” value in data set [6] (setting [13]) stood at 0.15 µg/mL. Also, the “absorption by oral route (in words)” value in data set [6] is “poorly absorbed by oral route and in a rate like that of erythromycin base”.
For `CC[C@H]1OC(=O)[C@H](C)[C@@H](O[C@H]2C[C@@](C)(OC)[C@@H](O)[C@H](C)O2)[C@H](C)[C@@H](O[C@@H]2O[C@H](C)C[C@H](N(C)C)[C@H]2O)[C@](C)(O)C[C@@H](C)C(=O)[C@H](C)[C@@H](O)[C@]1(C)O` [RV05, erythromycin-N-acetylcysteinate], the MIC is 200 µg/mL (≈ 273 µM) in data set [1], 0.8 µg/mL (≈ 1.09 µM) in data set [2], 0.8 µg/mL (≈ 1.09 µM) in data set [3] and 100 µg/mL (≈ 136 µM) in data set [4]. In addition, the “ED50 (reliability limits)” value in data set [5] (os) is given as 119.31 (150.05-94.87) mg/kg; in data set [5] (s.c.) it was 50.22 (62.33-40.46) mg/kg. The “Hematic levels in the rat” value turned out to be 0.44 µg/mL in data set [6] (setting [9]); 0.83 µg/mL in data set [6] (setting [10]); 1.41 µg/mL in data set [6] (setting [14]); 1.03 µg/mL in data set [6] (setting [15]); 0.59 µg/mL in data set [6] (setting [11]); 0.40 µg/mL in data set [6] (setting [12]). For the same molecule, the “Hematic levels in the rat” value in data set [6] (setting [13]) was 0.08 µg/mL. Also, the “absorption by oral route (in words)” value in data set [6] was “poorly absorbed by oral route and in a rate like that of erythromycin base”.
In the case of `CCC(=O)O[C@H]1[C@H](O[C@@H]2[C@@H](C)[C@H](O[C@H]3C[C@@](C)(OC)[C@@H](O)[C@H](C)O3)[C@@H](C)C(=O)O[C@H](CC)[C@@](C)(O)[C@H](O)[C@@H](C)C(=O)[C@H](C)C[C@@]2(C)O)O[C@H](C)C[C@@H]1N(C)C` [RV11, erythromycin-monopropionate-alpha-mercaptosuccinate], the MIC in data set [1] stood at 200 µg/mL (≈ 253 µM); in data set [2], 0.4 µg/mL (≈ 0.506 µM); in data set [3] it was 1.5 µg/mL (≈ 1.9 µM); in data set [4], 200 µg/mL (≈ 253 µM). Besides, the “ED50 (reliability limits)” value in data set [5] (os) is reported as 100.41 (122.52-82.30) mg/kg. The “Hematic levels in the healthy volunteer” value in data set [7] (0.30 hours, 18 min) stood at 1.28 µg/mL; in data set [7] (1 hour, 60 min), 1.70 µg/mL; in data set [7] (2 hours, 120 min), 2.16 µg/mL; in data set [7] (3 hours, 180 min), 1.48 µg/mL; in data set [7] (4 hours, 240 min), 1.21 µg/mL. For the same molecule, the “Hematic levels in the rat” value was 0.72 µg/mL in data set [8] (0.3 h); 1.64 µg/mL in data set [8] (1 h); 2.50 µg/mL in data set [8] (2 h); 1.31 µg/mL in data set [8] (3 h); 0.58 µg/mL in data set [8] (4 h); 0.38 µg/mL in data set [8] (5 h). In data set [8] (6 h), the “Hematic levels in the rat” value came to 0.08 µg/mL. Further, the “absorption by oral route (in words)” value in data set [8] is listed as “absorbed by oral route in a rate practically analogous to that of erythromycin estolate”.
Consider `CCC(=O)O[C@H]1[C@H](O[C@@H]2[C@@H](C)[C@H](O[C@H]3C[C@@](C)(OC)[C@@H](O)[C@H](C)O3)[C@@H](C)C(=O)O[C@H](CC)[C@@](C)(O)[C@H](O)[C@@H](C)C(=O)[C@H](C)C[C@@]2(C)O)O[C@H](C)C[C@@H]1N(C)C` [RV13, erythromycin-monopropionate-thiazolidin-carboxylate], for which the minimal inhibitory concentration (MIC) in data set [1] amounted to 100 µg/mL (≈ 127 µM); in data set [2], 0.8 µg/mL (≈ 1.01 µM); in data set [3], 0.8 µg/mL (≈ 1.01 µM); in data set [4], 100 µg/mL (≈ 127 µM). For the same molecule, the “ED50 (reliability limits)” value in data set [5] (os) is 113.88 (144.73-89.60) mg/kg. Besides, the “Hematic levels in the healthy volunteer” value is 1.16 µg/mL in data set [7] (0.30 hours, 18 min); 1.67 µg/mL in data set [7] (1 hour, 60 min); 2.21 µg/mL in data set [7] (2 hours, 120 min); 1.67 µg/mL in data set [7] (3 hours, 180 min); 1.29 µg/mL in data set [7] (4 hours, 240 min). Moreover, the “Hematic levels in the rat” value in data set [8] (0.3 h) came out at 0.81 µg/mL; in data set [8] (1 h) it was 1.80 µg/mL; in data set [8] (2 h) it was 2.47 µg/mL; in data set [8] (3 h), 1.10 µg/mL; in data set [8] (4 h) it was 0.72 µg/mL; in data set [8] (5 h) it was 0.52 µg/mL. Besides, in data set [8] (6 h), the “Hematic levels in the rat” value is 0.12 µg/mL. Moreover, the “absorption by oral route (in words)” value in data set [8] is reported as “absorbed by oral route in a rate practically analogous to that of erythromycin estolate”.

Values taken from patent US4476120A, “Thiolic derivatives of erythromycin having therapeutic activity, and pharmaceutical compositions containing them” (Sigma Tau Indistrie Farmaceutiche Riunites, p.A, priority 1982, dated 1984).
